# According to ChEMBL document CHEMBL4296183, “CO-ADD screening of NIH NCI Natural Product Set III” (2020):
# Tests used:
# Staphylococcus aureus = test: microbe, parasite or virus in culture; conditions: ATCC 43300, 18 h, ASSAY_TEST Inhibition of Bacterial Growth, detection method Absorption (OD600), MEDIA CAMHB, plate type 384well, NBS, CORNING #3640
# Description: Antibacterial activity against Staphylococcus aureus MRSA ATCC 43300 (CO-ADD:GP_020); MIC in CAMBH media, using NBS plates, by OD(600)
# HEK293 = test: cells; type: functional; conditions: Homo sapiens, ATCC CRL1573, HEK293; ASSAY_TEST Inhibition of Cell Viability; detection method Resazurin; Fluorescence (ex560/em590); MEDIA DMEM with 10% FBS; plate type 384well; TC; CORNING #3712; time 18 hr
# Candida albicans = test: microbe, parasite or virus in culture; conditions: ATCC 90028, ASSAY_TEST Inhibition of Fungal Growth, detection method Absorption (OD530), plate type 384well, NBS, CORNING #3640
# Description: Antifungal activity against Candida albicans ATCC 90028 (CO-ADD:FG_001); MIC in YNB media using NBS plates, by OD630
# Klebsiella pneumoniae = test: microbe, parasite or virus in culture; conditions: ATCC 700603, 18 h, ASSAY_TEST Inhibition of Bacterial Growth, detection method Absorption (OD600), MEDIA CAMHB, plate type 384well, NBS, CORNING #3640
# Description: Antibacterial activity against Klebsiella pneumoniae MDR ATCC 70063 (CO-ADD:GN_003); MIC in CAMBH media using NBS plates, by OD(600)
# Escherichia coli = test: microbe, parasite or virus in culture; conditions: ATCC 25922, 18 h, ASSAY_TEST Inhibition of Bacterial Growth, detection method Absorption (OD600), MEDIA CAMHB, plate type 384well, NBS, CORNING #3640
# Description: Antibacterial activity against Escherichia coli ATCC 25922 (CO-ADD:GN_001); MIC in CAMBH media using NBS plates, by OD(600)
# Pseudomonas aeruginosa = test: microbe, parasite or virus in culture; conditions: ATCC 27853, 18 h, ASSAY_TEST Inhibition of Bacterial Growth, detection method Absorption (OD600), MEDIA CAMHB, plate type 384well, NBS, CORNING #3640
# Description: Antibacterial activity against Pseudomonas aeruginosa ATCC 27853 (CO-ADD:GN_042); MIC in CAMBH media using NBS plates, by OD(600)
# Acinetobacter baumannii = test: microbe, parasite or virus in culture; conditions: ATCC 19606, 18 h, ASSAY_TEST Inhibition of Bacterial Growth, detection method Absorption (OD600), MEDIA CAMHB, plate type 384well, NBS, CORNING #3640
# Description: Antibacterial activity against Acinetobacter baumannii ATCC 19606 (CO-ADD:GN_034); MIC in CAMBH media using NBS plates, by OD600
# Description for Cryptococcus neoformans: Antifungal activity against Cryptococcus neoformans H99 ATCC 208821 (CO-ADD:FG_002); MIC in YNB media using NBS plates, by Resazurin OD(600-570)
Compound,MIC (Staphylococcus aureus) [µM],MIC (Cryptococcus neoformans) [µM],CC50 (HEK293) [µM],MIC (Candida albicans) [µM],MIC (Klebsiella pneumoniae) [µM],MIC (Escherichia coli) [µM],MIC (Pseudomonas aeruginosa) [µM],MIC (Acinetobacter baumannii) [µM]
C=C(NC(=O)C(=C)NC(=O)c1csc(C2=NC3c4csc(n4)C4NC(=O)c5csc(n5)C(C(C)(O)C(C)O)NC(=O)C5CSC(=N5)/C(=C/C)NC(=O)C(C(C)O)NC(=O)c5csc(n5)C3(CC2)NC(=O)C(C)NC(=O)C(=C)NC(=O)C(=C)NC(=O)C(C(C)C)NC2C=Cc3c(C(C)O)cc(nc3C2O)C(=O)OC4C)n1)C(N)=O (centres undefined),≤ 0.0781,> 10,> 10,> 10,> 10,> 10,> 10,> 10
COC1CC(CC2CCC(C)C(C(C)C(=O)O)O2)OC2(OC(C)(C3CCC(C)(C4OC(C5OC(O)(CO)C(C)CC5C)CC4C)O3)CC2C)C1C (centres undefined),0.156,> 10,> 10,10,> 10,> 10,> 10,> 10
CC1Oc2cc3c(-c4c(O)cc(O)c5c(O)c6c(cc45)OC(C)C(C)C6=O)c(O)cc(O)c3c(O)c2C(=O)C1C (centres undefined),5,> 10,5.78,> 10,> 10,> 10,> 10,> 10
